From ChEMBL document CHEMBL2203035, “Synthesis and docking studies of novel antitumor benzimidazoles” (Bioorg Med Chem, 2012)

Legend:
MCF7 [1] = test: Downregulation of uPA protein expression in human MCF7 cell extract at 0.0625 ug/well after 48 hrs by ELISA (reference value: 1 1.4000 +/- 1.40 ng/ml)
MCF7 [2] = test: Downregulation of uPA protein expression in human MCF7 cell extract at 0.25 uM after 48 hrs by ELISA (reference value: 1 1.4000 +/- 1.40 ng/ml); assay type: functional
Raji [3] = test: Inhibition of tumor promotion in human Raji cells assessed as TPA-induced Epstein-Barr virus early antigen activation at 10 mol ratio/TPA after 48 hrs by indirect immunofluorescence analysis relative to TPA alone; assay type: functional; design: scale not given: the % may be the effect or the level left
Raji [4] = test: Inhibition of tumor promotion in human Raji cells assessed as TPA-induced Epstein-Barr virus early antigen activation at 1000 mol ratio/TPA after 48 hrs by indirect immunofluorescence analysis relative to TPA alone; assay type: functional; design: scale not given: the % may be the effect or the level left
MCF7 [5] = test: Downregulation of uPA protein expression in human MCF7 cell extract at 0.50 uM after 48 hrs by ELISA (reference value: 1 1.4000 +/- 1.40 ng/ml); assay type: functional
A549 [6] = test: Downregulation of uPA protein expression in human A549 cell extract at 12 uM after 48 hrs by ELISA (reference value: 11.00 +/-1.60 ng/ml); assay type: functional
MCF7 [7] = test: Downregulation of uPA protein expression in human MCF7 cell extract at 0.125 uM after 48 hrs by ELISA; assay type: functional
A549 [8] = test: Downregulation of uPA protein expression in human A549 cell extract at 1.5 uM after 48 hrs by ELISA (reference value: 11.00 +/-1.60 ng/ml); assay type: functional
A549 [9] = test: Downregulation of uPA protein expression in human A549 cell extract at 6 uM after 48 hrs by ELISA (reference value: 11.00 +/-1.60 ng/ml); assay type: functional
A549 [10] = test: Downregulation of uPA protein expression in human A549 cell extract at 3 uM after 48 hrs by ELISA (reference value: 11.00 +/-1.60 ng/ml); assay type: functional
Raji [11] = test: Inhibition of tumor promotion in human Raji cells assessed as TPA-induced Epstein-Barr virus early antigen activation at 500 mol ratio/TPA after 48 hrs by indirect immunofluorescence analysis relative to TPA alone; assay type: functional; design: scale not given: the % may be the effect or the level left
[12] = biological target: Urokinase plasminogen activator surface receptor (Homo sapiens, UniProt Q03405); test: Binding affinity to uPAR
A549 [13] = test: Cytotoxicity against human A549 cells after 72 hrs by alamar blue assay; assay type: functional, cell-based; conditions: A549, 72 h
MCF7 [14] = test: cells; conditions: Homo sapiens, MCF7, 48 h
Description: Cytotoxicity against human MCF7 cells after 48 hrs by sulforhodamine B assay

MCF7 [15] = test: Downregulation of uPA protein expression in human MCF7 cell extract at 0.50 uM after 48 hrs by ELISA; assay type: functional
MCF7 [16] = test: Downregulation of uPA protein expression in human MCF7 cell extract at 0.0625 uM after 48 hrs by ELISA; assay type: functional
MCF7 [17] = test: Downregulation of uPA protein expression in human MCF7 cell extract at 0.25 uM after 48 hrs by ELISA; assay type: functional
MCF7 [18] = test: Downregulation of uPA protein expression in human MCF7 cell extract at 0.125 uM after 48 hrs by ELISA (reference value: 1 1.4000 +/- 1.40 ng/ml); assay type: functional
Raji [19] = test: Inhibition of tumor promotion in human Raji cells assessed as TPA-induced Epstein-Barr virus early antigen activation at 100 mol ratio/TPA after 48 hrs by indirect immunofluorescence analysis relative to TPA alone; assay type: functional; design: scale not given: the % may be the effect or the level left
MCF7 [20] = test: Downregulation of uPA protein expression in human MCF7 cell extract at 0.67 uM after 48 hrs by ELISA (reference value: 1 1.4000 +/- 1.40 ng/ml); assay type: functional
A549 [21] = test: Downregulation of uPA protein expression in human A549 cell extract at 0.85 uM after 48 hrs by ELISA (reference value: 11.0000 +/-1.60 ng/ml); assay type: functional
A549 [22] = test: Downregulation of uPA protein expression in human A549 cell extract at 1.70 uM after 48 hrs by ELISA (reference value: 11.0000 +/-1.60 ng/ml); assay type: functional
MCF7 [23] = test: Downregulation of uPA protein expression in human MCF7 cell extract at 0.084 uM after 48 hrs by ELISA; assay type: functional
MCF7 [24] = test: Downregulation of uPA protein expression in human MCF7 cell extract at 0.167 uM after 48 hrs by ELISA; assay type: functional
A549 [25] = test: Downregulation of uPA protein expression in human A549 cell extract at 3.40 uM after 48 hrs by ELISA (reference value: 11.0000 +/-1.60 ng/ml); assay type: functional
MCF7 [26] = test: Downregulation of uPA protein expression in human MCF7 cell extract at 0.67 uM after 48 hrs by ELISA; assay type: functional
MCF7 [27] = test: Downregulation of uPA protein expression in human MCF7 cell extract at 0.335 ug/well after 48 hrs by ELISA (reference value: 1 1.4000 +/- 1.40 ng/ml)
A549 [28] = test: Downregulation of uPA protein expression in human A549 cell extract at 3.40 uM after 48 hrs by ELISA; assay type: functional
A549 [29] = test: Downregulation of uPA protein expression in human A549 cell extract at 1.70 uM after 48 hrs by ELISA; assay type: functional
MCF7 [30] = test: Downregulation of uPA protein expression in human MCF7 cell extract at 0.167 ug/well after 48 hrs by ELISA (reference value: 1 1.4000 +/- 1.40 ng/ml)
A549 [31] = test: Downregulation of uPA protein expression in human A549 cell extract at 0.425 uM after 48 hrs by ELISA; assay type: functional
A549 [32] = test: Downregulation of uPA protein expression in human A549 cell extract at 0.85 uM after 48 hrs by ELISA; assay type: functional
MCF7 [33] = test: Downregulation of uPA protein expression in human MCF7 cell extract at 0.084 ug/well after 48 hrs by ELISA (reference value: 1 1.4000 +/- 1.40 ng/ml)
A549 [34] = test: Downregulation of uPA protein expression in human A549 cell extract at 0.425 uM after 48 hrs by ELISA (reference value: 11.0000 +/-1.60 ng/ml); assay type: functional
MCF7 [35] = test: Downregulation of uPA protein expression in human MCF7 cell extract at 0.335 uM after 48 hrs by ELISA; assay type: functional

Sequence of Urokinase plasminogen activator surface receptor (Q03405 whole entry): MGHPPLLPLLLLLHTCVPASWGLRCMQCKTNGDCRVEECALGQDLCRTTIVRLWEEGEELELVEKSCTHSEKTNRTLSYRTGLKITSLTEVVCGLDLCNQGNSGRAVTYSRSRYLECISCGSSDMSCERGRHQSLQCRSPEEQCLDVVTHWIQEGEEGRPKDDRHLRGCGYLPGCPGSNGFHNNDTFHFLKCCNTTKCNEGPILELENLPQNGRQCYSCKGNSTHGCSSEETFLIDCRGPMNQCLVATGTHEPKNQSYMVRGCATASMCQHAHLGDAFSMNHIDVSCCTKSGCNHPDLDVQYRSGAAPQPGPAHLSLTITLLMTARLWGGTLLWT

N#Cc1cc(-c2ccccc2)n(Cc2nc3ccccc3[nH]2)c1N
Activity (MCF7 [1]): 7.4 ng/mL
Activity (MCF7 [2]): 4 ng/mL
Activity (Raji [3]): 100%
Activity (Raji [4]): 18%
Activity (MCF7 [5]): 2.8 ng/mL
Activity (A549 [6]): 9.2 ng/mL
Activity (MCF7 [7]): 50%
Activity (A549 [8]): 11.6 ng/mL
Activity (A549 [9]): 9.8 ng/mL
Activity (A549 [10]): 9.7 ng/mL
Activity (Raji [11]): 48.3%
Ki [12]: 0.000589 nM
IC50 (A549 [13]): 12000 nM
IC50 (MCF7 [14]): 0.515 µg/well
Activity (MCF7 [15]): 75%
Activity (MCF7 [16]): 35%
Activity (MCF7 [17]): 65%
Activity (MCF7 [18]): 5.7 ng/mL
Activity (Raji [19]): 82%

C=CCn1c(CN2C3=Nc4ccccc4C(=O)NC3=Nc3ccccc32)nc2ccccc21
Activity (MCF7 [20]): 4.4 ng/mL
Activity (A549 [21]): 6.2 ng/mL
Activity (A549 [22]): 5.3 ng/mL
Activity (Raji [3]): 100%
Activity (Raji [4]): 11.6%
Activity (MCF7 [23]): 23%
Activity (MCF7 [24]): 33%
Activity (A549 [25]): 3.8 ng/mL
Activity (MCF7 [26]): 61%
Activity (MCF7 [27]): 7 ng/mL
Activity (A549 [28]): 65%
Activity (Raji [11]): 45.8%
Ki [12]: 0.000288 nM
IC50 (A549 [13]): 3400 nM
IC50 (MCF7 [14]): 0.667 µg/well
Activity (A549 [29]): 52%
Activity (MCF7 [30]): 7.7 ng/mL
Activity (A549 [31]): 33%
Activity (A549 [32]): 44%
Activity (MCF7 [33]): 8.8 ng/mL
Activity (A549 [34]): 7.4 ng/mL
Activity (Raji [19]): 77.9%
Activity (MCF7 [35]): 39%
